The values that follow come from US20250312303A1, “ANTICANCER AGENT” (AGC Inc., priority 2022, published 2025).

This assay deals with HeLa cells. The assay can be described thus: Tumor volume of subcutaneously transplanted HeLa cells in SCID/SCID mice. The format is in vivo. On the procedure: First, 0.1 mL samples of an HeLa cell solution with a concentration of 1.0×10^7 cells/mL were transplanted beneath the skin of SCID/SCID (immunodeficient) mice. Starting 7 days after the HeLa cell transplantation, PBS (control group), leucine (5 mg/kg mouse bodyweight) or trifluoroleucine (5 mg/kg mouse bodyweight) was administered intraperitoneally every day for two weeks. The growth of the tumor tissue was observed over time from the time of HeLa transplantation, and the tumor volume (mm^3) was calculated. The tumor volume (mm^3) was calculated from the major diameter (mm) of the tumor tissue and the minor diameter (mm) of the tumor tissue using the formula shown below.
With the exceptions of using monofluoroisoleucine or 5-fluoro-5-methyl-norleucine (CAS RN: 1361228-49-0) instead of the trifluoroleucine, and starting the administration of the PBS, 5-fluoro-5-methyl-norleucine or monofluoroisoleucine 11 days after rather than 7 days after the HeLa cell transplantation, the same procedure as (1) above was used to measure the volume (mm^3) of the tumor formed by the subcutaneously transplanted HeLa cells over time.
(§1) First, 0.1 mL samples of an HeLa cell solution with a concentration of 1.0×10^7 cells/mL were transplanted beneath the skin of SCID/SCID (immunodeficient) mice. Starting 7 days after the HeLa cell transplantation, PBS (control group), glutamine (Gln) (5 mg/kg mouse bodyweight), (2S,4S)Gln(1F) (5 mg/kg mouse bodyweight) or (2S,4R)Gln(1F) (5 mg/kg mouse bodyweight) was administered intraperitoneally every day for two weeks. The growth of the tumor tissue was observed over time from the time of HeLa cell transplantation, and the tumor volume (mm^3) was calculated. The tumor volume (mm^3) was determined in the same manner as that described in Example 2.
as §1, with “mouse bodyweight), or di-F-Gln(F)” for “mouse bodyweight), (2S,4S)Gln(1F) (5 mg/kg mouse bodyweight) or (2S,4R)Gln(1F)”, “bodyweight), or di-F-Gln(F) (5 mg/kg” for “bodyweight) or (2S,4R)Gln(1F) (5 mg/kg”, “of HeLa transplantation, and” for “of HeLa cell transplantation, and”

The mark [1] stands for this setting: 5 mg/kg intraperitoneally every day for two weeks starting day 7, 7 days since HeLa cell transplantation.
[2] abbreviates: 5 mg/kg intraperitoneally every day for two weeks starting day 7, 14 days since HeLa cell transplantation.
The mark [3] stands for this setting: 5 mg/kg intraperitoneally every day for two weeks starting day 7, 21 days since HeLa cell transplantation.

Structures are written as SMILES. “And” between values parts separate entries of the source, which are not always exact repeats. Equal entries are not always repeated.

For the compound `CC(C)C[C@H](N)C(=O)O` [Leu, leucine, reference compound], the Tumor volume by setting is: under setting [1], 77.4 mm^3; (5 mg/kg intraperitoneally every day for two weeks starting day 7, 10 days since HeLa cell transplantation) 190.1 mm^3; (5 mg/kg intraperitoneally every day for two weeks starting day 7, 12 days since HeLa cell transplantation) 355.3 mm^3; under setting [2], 385.1 mm^3; (5 mg/kg intraperitoneally every day for two weeks starting day 7, 17 days since HeLa cell transplantation) 714.2 mm^3; (5 mg/kg intraperitoneally every day for two weeks starting day 7, 19 days since HeLa cell transplantation) 1094.6 mm^3. Under setting [3], the Tumor volume stood at 1536.5 mm^3.

With `NC(=O)CC[C@H](N)C(=O)O` [Gln, glutamine, reference compound], the Tumor volume reads like this: under setting [1], 76.0 mm^3 and 97.3 mm^3; (5 mg/kg intraperitoneally every day for two weeks starting day 7, 9 days since HeLa cell transplantation) 134.7 mm^3 and 259.1 mm^3; (5 mg/kg intraperitoneally every day for two weeks starting day 7, 11 days since HeLa cell transplantation) 215.4 mm^3 and 341.0 mm^3; under setting [2], 488.0 mm^3 and 721.9 mm^3; (5 mg/kg intraperitoneally every day for two weeks starting day 7, 16 days since HeLa cell transplantation) 734.1 mm^3 and 1094.6 mm^3; (5 mg/kg intraperitoneally every day for two weeks starting day 7, 18 days since HeLa cell transplantation) 939.6 mm^3 and 1348.3 mm^3. Besides, under setting [3], the Tumor volume is 1256.0 mm^3 and 1849.5 mm^3. Besides, the “Increase in the size of the tumor tissue compared with the control group” value (HeLa tumor-bearing SCID/SCID mice, 5 mg/kg intraperitoneally every day for two weeks, result in words) is reported as “even larger than the control group”.

As to `CC(C)(F)CC[C@H](N)C(=O)O` [5F-NorLeu, 5-fluoro-5-methyl-norleucine], the Tumor volume turned out to be 230.6 mm^3 (administration intraperitoneally every day starting day 11, 11 days since HeLa cell transplantation); 373.9 mm^3 (administration intraperitoneally every day starting day 11, 13 days since HeLa cell transplantation); 684.9 mm^3 (administration intraperitoneally every day starting day 11, 15 days since HeLa cell transplantation); 823.5 mm^3 (administration intraperitoneally every day starting day 11, 18 days since HeLa cell transplantation); 1291.7 mm^3 (administration intraperitoneally every day starting day 11, 20 days since HeLa cell transplantation); 1951.5 mm^3 (administration intraperitoneally every day starting day 11, 22 days since HeLa cell transplantation).
